Like-named read-outs stand apart in the source and are kept apart here.
Experiments:
[1] = tested on: P. falciparum strain F32-TEM (F32-Tanzania); assay: In vitro antiplasmodial activity (SYBR Green fluorescence and [3H] hypoxanthine assays); type: cell-based, Plasmodium falciparum
Method: In vitro antiplasmodial activities of the synthesized hybrid molecules were evaluated against the P. falciparum strain F32-TEM (corresponding to the parental strain F32-Tanzania). Each molecule was tested at least in three independent experiments (except Aubis(5-Bn), tested twice) by a SYBR Green Fluorescence assay but also at least once with the standard chemosensitivity assay recommended by the WHO and based on the incorporation of [^3H] hypoxanthine.
For the SYBR Green Fluorescence assay, ring stage parasites were treated with the drugs for 48 h. Then, the pellets were washed twice with PBS and frozen at −20 °C. Thawed plates were incubated for 2 h at room temperature with the SYBR Green (Thermo-Fisher, Illkirch, France) lysis buffer (20 mm Tris base pH 7.5, 5 mm EDTA, 0.008% w/v saponin, 0.08% w/v Triton X-100). The plates were then read using a fluorescence plate reader (FLx800, BioTek, Illkirch, France) at an excitation wavelength of 485 nm and 535 nm for the emission wavelength. The IC50 values (concentration inhibiting 50% of the parasite’s growth) were determined using GraphPad Prism software 7 (GraphPad Software, San Diego, CA, USA).
For [^3H] hypoxanthine assay, ring stage parasites were incubated with the drug dilutions for 24 h, then, [^3H] hypoxanthine (50 μL/0.25 μCi; Perkin-Elmer, Courtaboeuf, France) was added for another 24 h period. After that, plates were frozen at −20 °C. The next step is to thaw the plates and to collect the nucleic acids. Tritium incorporation was then determined thanks to a β-counter (Perkin-Elmer, Courtaboeuf, France).
The antiplasmodial activities reported in Table 1 correspond thus to the mean of IC50 values from at least 4 independent experiments acquired by the two methods, SYBR Green and radioactivity.

Vero cell line = assay: Cytotoxicity on Vero cells (MTT); type: cell-based, monkey; details: for IC50: Vero cells, 48 h, MTT, read-out: Cytotoxicity on Vero Cells IC50 ± SEM
Method: The cells were cultured in MEM medium (Dutscher, Brumath, France) supplemented with 10% fetal bovine serum (Dutscher), 0.7 mM glutamine and 100 μg/mL gentamicin. The cells were seeded at 10^4 cells per well in a 96-well plates and incubated during 24 h. Then, cells were incubated for additional 48 h with the drugs. […] Subsequently, DMSO was added to the wells containing the cells and MTT to dissolve the formed crystals. The plates were then read to determine the absorbance at wavelength of 540 nm (µQuant, BioTek, Illkirch, France). Cell proliferation was calculated from at least three independent experiments using GraphPad Prism software 7 (GraphPad Software, San Diego, CA, USA). The cytotoxic/antiplasmodial activity ratio corresponds to the selectivity index.

[2] = Plasmodium falciparum, F32, 48 h, strain F32-Tanzania (F32-TEM), mean of at least 4 experiments, SYBR Green and radioactivity assays, read-out: Antiplasmodial Activity on P. falciparum IC50 ± SEM
[3] = strain F32-Tanzania (F32-TEM), mean of at least 4 experiments, SYBR Green and radioactivity assays, 48 h, read-out: Antiplasmodial Activity on P. falciparum IC50 ± SEM

`C[C@@H]1CCC2[C@@H](C)[C@@H](OCCCCn3cc[n+](-c4ccc5ccccc5n4)c3)O[C@@H]3O[C@@]4(C)CCC1[C@@]23OO4` (stereo partly drawn) [L4-Quin, 3′-Quinolin-2-yl-1′-[10β-(21-butoxy)dihydroartemisinin]1H-imidazol-3-ium bromide] was tested. Which IC50 [1, 2] did it give?
Its IC50 is 330 ± 37 nM.

For `C[C@@H]1CCC2[C@@H](C)[C@@H](OCCCn3cc[n+](-c4ccc5ccccc5n4)c3)O[C@@H]3O[C@@]4(C)CCC1[C@@]23OO4` (stereo partly drawn) [L3-Quin, 3′-Quinolin-2-yl-1′-[10β-(20-propoxy)dihydroartemisinin]1H-imidazol-3-ium bromide], which IC50 [1, 2] is on record?
Its IC50 is 330 ± 69 nM.

With `C[C@@H]1CCC2[C@@H](C)[C@@H](OCCCCCn3cc[n+](-c4ccc5ccccc5n4)c3)O[C@@H]3O[C@@]4(C)CCC1[C@@]23OO4` (stereo partly drawn) [L5-Quin, 3′-Quinolin-2-yl-1′-[10β-(22-pentoxy)dihydroartemisinin]1H-imidazol-3-ium bromide] as the molecule, how does the IC50 [1, 2] read?
The IC50 was 226 ± 29 nM.

How did the IC50 [1, 2] turn out when `C[C@@H]1CCC2[C@@H](C)[C@@H](OCCCn3cc[n+](Cc4ccccc4)c3)O[C@@H]3O[C@@]4(C)CCC1[C@@]23OO4` (stereo partly drawn) [L3-Bn, 3′-Benzyl-1′-[10β-(20-propoxy)dihydroartemisinin]1H-imidazol-3-ium bromide] was run?
Its IC50 is 351 ± 56 nM.

For `C[C@@H]1CCC2[C@@H](C)[C@@H](OCCCCn3cc[n+](C)c3)O[C@@H]3O[C@@]4(C)CCC1[C@@]23OO4` (stereo partly drawn) [L4-Me, 3′-methyl-1′-[10β-(21-butoxy)-dihydroartemisinin]1H-imidazol-3-ium bromide], which IC50 [1, 2] is on record?
Its IC50 is 840 ± 64 nM.

With `Cc1cc(C)c(-[n+]2ccn(CCCCO[C@H]3O[C@@H]4O[C@@]5(C)CCC6[C@H](C)CCC([C@H]3C)[C@]64OO5)[c]2[Au-][c]2n(CCCCO[C@H]3O[C@@H]4O[C@@]5(C)CCC6[C@H](C)CCC([C@H]3C)[C@]64OO5)cc[n+]2-c2c(C)cc(C)cc2C)c(C)c1.[Cl-]` (some centres unmarked) [Aubis(4-Mes)] as the molecule, how does the IC50 [1, 3] read?
Its IC50 is 38 ± 3 nM.

What about the IC50 (Vero cell line) of the same molecule?
Its IC50 is 700 nM.

How did the IC50 [1, 2] turn out when `Cc1cc(C)c(-[n+]2ccn(CCCCO[C@H]3O[C@@H]4O[C@@]5(C)CCC6[C@H](C)CCC([C@H]3C)[C@]64OO5)c2)c(C)c1` (stereo partly drawn) [L4-Mes, 3′-Mesityl-1′-[10β-(21-butoxy)dihydroartemisinin]1H-imidazol-3-ium bromide] was run?
The IC50 was 219 ± 18 nM.

With `Cc1cc(C)c(-[n+]2ccn(CCCCCO[C@H]3O[C@@H]4O[C@@]5(C)CCC6[C@H](C)CCC([C@H]3C)[C@]64OO5)[c]2[Au-][c]2n(CCCCCO[C@H]3O[C@@H]4O[C@@]5(C)CCC6[C@H](C)CCC([C@H]3C)[C@]64OO5)cc[n+]2-c2c(C)cc(C)cc2C)c(C)c1.[Cl-]` (some centres unmarked) [Aubis(5-Mes)] as the molecule, how does the IC50 [1, 3] read?
The IC50 was 100 ± 12 nM.

`CC(C)[n+]1ccn(CCCO[C@H]2O[C@@H]3O[C@@]4(C)CCC5[C@H](C)CCC([C@H]2C)[C@]53OO4)c1` (stereo partly drawn) [L3-iPr, 3′-Isopropyl-1′-[10β-(20-propoxy)dihydroartemisinin]1H-imidazol-3-ium bromide] was tested. Which IC50 [1, 2] did it give?
The IC50 was 335 ± 28 nM.

`Cc1cc(C)c(-[n+]2ccn(CCCO[C@H]3O[C@@H]4O[C@@]5(C)CCC6[C@H](C)CCC([C@H]3C)[C@]64OO5)[c]2[Au-][c]2n(CCCO[C@H]3O[C@@H]4O[C@@]5(C)CCC6[C@H](C)CCC([C@H]3C)[C@]64OO5)cc[n+]2-c2c(C)cc(C)cc2C)c(C)c1.[Cl-]` (some centres unmarked) [Aubis(3-Mes)] was tested. Which IC50 [1, 3] did it give?
The IC50 was 61 ± 37 nM.

And the IC50 (Vero cell line)?
The IC50 was 500 nM.

`C[C@@H]1CCC2[C@@H](C)[C@@H](OCCCn3cc[n+](-c4ccc5ccccc5n4)[c]3[Au-][c]3n(CCCO[C@H]4O[C@@H]5O[C@@]6(C)CCC7[C@H](C)CCC([C@H]4C)[C@]75OO6)cc[n+]3-c3ccc4ccccc4n3)O[C@@H]3O[C@@]4(C)CCC1[C@@]23OO4.[Cl-]` (some centres unmarked) [Aubis(3-Quin)] was tested. Which IC50 [1, 3] did it give?
The IC50 was 23 ± 8 nM.

What about the IC50 (Vero cell line) of the same molecule?
Its IC50 is 1200 nM.

Which IC50 [1, 2] does the source give for `C[C@@H]1CCC2[C@@H](C)[C@@H](OCCCCn3cc[n+](Cc4ccccc4)c3)O[C@@H]3O[C@@]4(C)CCC1[C@@]23OO4` (stereo partly drawn) [L4-Bn, 3′-Benzyl-1′-[10β-(21-butoxy)dihydroartemisinin]1H-imidazol-3-ium bromide] here?
The IC50 was 326 ± 44 nM.

`C[C@@H]1CCC2[C@@H](C)[C@@H](OCCCCCn3cc[n+](C)c3)O[C@@H]3O[C@@]4(C)CCC1[C@@]23OO4` (stereo partly drawn) [L5-Me, 3′-methyl-1′-[10β-(22-pentoxy)-dihydroartemisinin]1H-imidazol-3-ium bromide] was tested. Which IC50 [1, 2] did it give?
Its IC50 is 172 ± 22 nM.

What does the source list for `CO[C@H]1O[C@@H]2O[C@@]3(C)CC[C@H]4[C@H](C)CC[C@@H]([C@H]1C)[C@@]24OO3` [Artemether]?
IC50 ([1]; Plasmodium falciparum, F32, 48 h, read-out: Antiplasmodial Activity on P. falciparum IC50 ± SEM, strain F32-Tanzania (F32-TEM), mean of at least 4 experiments, SYBR Green and radioactivity assays): 6.1 ± 1 nM; Selectivity Index Vero Cells/P. falciparum (Vero cell line; cytotoxic/antiplasmodial activity ratio): 35 000

For `C[C@@H]1CCC2[C@@H](C)[C@@H](OCCCCCn3cc[n+](-c4ccc5ccccc5n4)[c]3[Au-][c]3n(CCCCCO[C@H]4O[C@@H]5O[C@@]6(C)CCC7[C@H](C)CCC([C@H]4C)[C@]75OO6)cc[n+]3-c3ccc4ccccc4n3)O[C@@H]3O[C@@]4(C)CCC1[C@@]23OO4.[Cl-]` (some centres unmarked) [Aubis(5-Quin)], which IC50 [1, 3] is on record?
Its IC50 is 38 ± 9 nM.

What about the IC50 (Vero cell line) of the same molecule?
Its IC50 is 2000 nM.

How did the IC50 [1, 3] turn out when `C[C@@H]1CCC2[C@@H](C)[C@@H](OCCCCn3cc[n+](Cc4ccccc4)[c]3[Au-][c]3n(CCCCO[C@H]4O[C@@H]5O[C@@]6(C)CCC7[C@H](C)CCC([C@H]4C)[C@]75OO6)cc[n+]3Cc3ccccc3)O[C@@H]3O[C@@]4(C)CCC1[C@@]23OO4.[Cl-]` (some centres unmarked) [Aubis(4-Bn)] was run?
The IC50 was 40 ± 21 nM.

What about the IC50 (Vero cell line) of the same molecule?
Its IC50 is 700 nM.

With `C[C@@H]1CCC2[C@@H](C)[C@@H](OCCCn3cc[n+](Cc4ccccc4)[c]3[Au-][c]3n(CCCO[C@H]4O[C@@H]5O[C@@]6(C)CCC7[C@H](C)CCC([C@H]4C)[C@]75OO6)cc[n+]3Cc3ccccc3)O[C@@H]3O[C@@]4(C)CCC1[C@@]23OO4.[Cl-]` (some centres unmarked) [Aubis(3-Bn)] as the molecule, how does the IC50 [1, 3] read?
Its IC50 is 22 ± 3 nM.

And the IC50 (Vero cell line)?
The IC50 was 300 nM.

Which IC50 [1, 2] does the source give for `C[C@@H]1CCC2[C@@H](C)[C@@H](OCCCn3cc[n+](C)c3)O[C@@H]3O[C@@]4(C)CCC1[C@@]23OO4` (stereo partly drawn) [L3-Me, 3′-methyl-1′-[10β-(20-propoxy)-dihydroartemisinin]1H-imidazol-3-ium bromide] here?
The IC50 was 935 ± 117 nM.

For `Cc1cc(C)c(-[n+]2ccn(CCCO[C@H]3O[C@@H]4O[C@@]5(C)CCC6[C@H](C)CCC([C@H]3C)[C@]64OO5)c2)c(C)c1` (stereo partly drawn) [L3-Mes, 3′-Mesityl-1′-[10β-(20-propoxy)dihydroartemisinin]1H-imidazol-3-ium bromide], which IC50 [1, 2] is on record?
The IC50 was 655 ± 53 nM.

For `C[C@@H]1CCC2[C@@H](C)[C@@H](OCCCCCn3cc[n+](Cc4ccccc4)[c]3[Au-][c]3n(CCCCCO[C@H]4O[C@@H]5O[C@@]6(C)CCC7[C@H](C)CCC([C@H]4C)[C@]75OO6)cc[n+]3Cc3ccccc3)O[C@@H]3O[C@@]4(C)CCC1[C@@]23OO4.[Cl-]` (some centres unmarked) [Aubis(5-Bn)], which IC50 [1, 3] is on record?
Its IC50 is 72 ± 14 nM.

What about the IC50 (Vero cell line) of the same molecule?
Its IC50 is 600 nM.

What does the source list for `CC(C)[n+]1ccn(CCCO[C@H]2O[C@@H]3O[C@@]4(C)CCC5[C@H](C)CCC([C@H]2C)[C@]53OO4)[c]1[Au-][c]1n(CCCO[C@H]2O[C@@H]3O[C@@]4(C)CCC5[C@H](C)CCC([C@H]2C)[C@]53OO4)cc[n+]1C(C)C.[Cl-]` (some centres unmarked) [Aubis(3-iPr)]?
IC50 [1, 3]: 13 ± 5 nM; IC50 (Vero cell line): 700 nM

`CC(=O)OC[C@H]1O[C@@H]([S-])[C@H](OC(C)=O)[C@@H](OC(C)=O)[C@@H]1OC(C)=O.CCP(CC)CC.[Au+]` [Auranofin, reference compound] was tested. Which IC50 [1, 3] did it give?
Its IC50 is 1500 nM.

For `C[C@@H]1CCC2[C@@H](C)[C@@H](OCCCCn3cc[n+](-c4ccc5ccccc5n4)[c]3[Au-][c]3n(CCCCO[C@H]4O[C@@H]5O[C@@]6(C)CCC7[C@H](C)CCC([C@H]4C)[C@]75OO6)cc[n+]3-c3ccc4ccccc4n3)O[C@@H]3O[C@@]4(C)CCC1[C@@]23OO4.[Cl-]` (some centres unmarked) [Aubis(4-Quin)], which IC50 [1, 3] is on record?
Its IC50 is 83 ± 31 nM.

Source: article PMC7356589, “Hybrid Gold(I) NHC-Artemether Complexes to Target Falciparum Malaria Parasites” (Molecules, 2020)
